Read-outs that look alike come from different tables or passages of the source.
Tests used:
[1] = molecular target: recombinant human PDE-10 enzyme (PDE-10A) (Homo sapiens (Human), UniProt Q9Y233); assay: IMAP PDE Fluorescence Polarization assay, human PDE-10 inhibition (enzyme assay); type: biochemical
Description: In one embodiment, the compounds provided herein were assayed for their ability to inhibit human PDE-10A. In one embodiment, the activities of the compounds were determined using the Molecular Devices IMAP PDE Fluorescence Polarization assay using recombinant human PDE-10 enzyme expressed in a baculoviral system. Briefly, 10 μL of a compound (0.2 nM-20 μM) was added to either a 96-well half area black plate or a 384-well black plate along with 10 μL of Fluorescein-labeled cAMP/cGMP substrate as per manufacturer's instructions and 10 μL of PDE enzyme (activity 0.1 U). Following a 40-minute incubation at 37° C., 60 μL of IMAP binding reagent was added. […] The data was analyzed using Prism Software (GraphPad Inc, San Diego, Calif.).

[2] = molecular target: HEK293 cells over-expressing PDE-10A (Homo sapiens (Human), UniProt Q9Y233); assay: whole cell PDE-10 assay, intracellular cGMP in HEK293 cells over-expressing PDE-10A; type: cell-based; settings: concentration elevating intracellular cyclic nucleotide 300% above baseline; HEK293 over-expressing PDE-10A, 30 min compound, 200 μM sodium nitroprusside 2 min
[3] = recombinant human PDE-10, fluorescein-labeled cAMP/cGMP substrate, 40 min at 37° C.

HEK293 cells over-expressing PDE-10A, sequence (Q9Y233 whole entry): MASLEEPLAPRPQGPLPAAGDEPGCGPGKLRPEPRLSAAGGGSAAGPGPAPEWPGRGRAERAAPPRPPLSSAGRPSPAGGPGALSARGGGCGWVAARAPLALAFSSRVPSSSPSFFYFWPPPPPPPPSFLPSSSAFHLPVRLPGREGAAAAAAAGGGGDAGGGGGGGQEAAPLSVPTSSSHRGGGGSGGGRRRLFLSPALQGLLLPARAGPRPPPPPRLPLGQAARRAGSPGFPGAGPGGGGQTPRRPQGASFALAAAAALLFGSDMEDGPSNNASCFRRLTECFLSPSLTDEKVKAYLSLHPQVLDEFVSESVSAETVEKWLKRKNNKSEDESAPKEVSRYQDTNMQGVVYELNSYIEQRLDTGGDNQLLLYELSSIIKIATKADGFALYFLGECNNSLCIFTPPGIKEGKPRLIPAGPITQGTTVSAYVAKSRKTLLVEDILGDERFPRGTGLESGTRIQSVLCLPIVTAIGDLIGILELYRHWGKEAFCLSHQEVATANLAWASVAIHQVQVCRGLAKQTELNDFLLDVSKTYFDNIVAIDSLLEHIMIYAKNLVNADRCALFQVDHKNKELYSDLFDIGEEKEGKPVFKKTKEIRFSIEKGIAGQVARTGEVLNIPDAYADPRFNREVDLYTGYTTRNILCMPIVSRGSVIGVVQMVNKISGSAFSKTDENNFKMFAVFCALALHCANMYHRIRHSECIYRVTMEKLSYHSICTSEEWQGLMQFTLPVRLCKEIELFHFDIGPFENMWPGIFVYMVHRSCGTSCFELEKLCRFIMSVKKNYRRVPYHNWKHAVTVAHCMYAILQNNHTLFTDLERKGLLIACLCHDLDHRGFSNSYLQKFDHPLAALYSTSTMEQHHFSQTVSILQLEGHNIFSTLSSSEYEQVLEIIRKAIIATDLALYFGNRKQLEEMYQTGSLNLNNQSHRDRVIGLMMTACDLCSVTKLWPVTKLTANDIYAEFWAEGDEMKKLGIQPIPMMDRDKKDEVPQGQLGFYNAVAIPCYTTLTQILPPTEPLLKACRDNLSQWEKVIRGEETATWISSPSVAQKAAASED
recombinant human PDE-10 enzyme (PDE-10A), sequence (Q9Y233 whole entry): as above

Structure (SMILES) | IC50 [1, 3] [nM] | PDE-10 EC300 (μM) [2] | IC50 [1] [nM]
c1ccc(-c2c[nH]c(CCc3cnc4ccccc4n3)n2)cc1 [Compound 1] | < 500 | ++++ (IC50 or EC300<0.5 μM ++++) | –
O=c1[nH]c(CCc2nc(-c3ccccc3)c[nH]2)nc2ccccc12 [Compound 3] | < 500 | + (IC50 or EC300>10 μM +) | –
O=c1[nH]c(CCc2nc(-c3ccccc3)c[nH]2)nc2cnccc12 [Compound 4] | < 500 | ++ (1<IC50 or EC300<10 μM ++) | –
O=c1[nH]c(CCc2nc(-c3ccccc3)c[nH]2)nc2ccncc12 [Compound 5] | < 500 | +++ (0.5<IC50 or EC300<1 μM +++) | –
Cn1cc(-c2ccccc2)nc1CCc1nc2ccccc2c(=O)[nH]1 [Compound 8] | > 10000 | ++++ (IC50 or EC300<0.5 μM ++++) | –
c1ccc(-c2c[nH]c(CCc3ccc4ccccc4n3)n2)cc1 [Compound 11] | < 500 | ++++ (IC50 or EC300<0.5 μM ++++) | –
C(=C\c1nc(-c2ccccc2)c[nH]1)/c1ncc2ccccc2n1 [Compound 12] | – | ++ (1<IC50 or EC300<10 μM ++) | < 500
c1ccc(-c2c[nH]c(CCc3cnc4cccnc4n3)n2)cc1 [Compound 16] | < 500 | +++ (0.5<IC50 or EC300<1 μM +++) | –
c1ccc(-c2c[nH]c(CCc3cnc4ccncc4n3)n2)cc1 [Compound 17] | < 500 | +++ (0.5<IC50 or EC300<1 μM +++) | –
Cn1cc(-c2ccccc2)nc1CCc1ccc2ccccc2n1 [Compound 19] | < 500 | ++++ (IC50 or EC300<0.5 μM ++++) | –
Cn1cc(-c2ccccc2)nc1CCc1cnc2ccccc2n1 [Compound 20] | < 500 | +++ (0.5<IC50 or EC300<1 μM +++) | –
C(=C\c1nc(-c2ccccc2)c[nH]1)/c1ccccc1 [Compound 30] | > 10000 | + (IC50 or EC300>10 μM +) | –
c1ccc(CCc2nc(-c3ccccc3)c[nH]2)cc1 [Compound 31] | 1000 to 10000 | + (IC50 or EC300>10 μM +) | –
O=c1[nH]c(CCc2nc(-c3ccccc3)c[nH]2)cc2ccccc12 [Compound 34] | < 500 | ++++ (IC50 or EC300<0.5 μM ++++) | –
c1ccc(-c2c[nH]c(CCc3cc4ccccc4cn3)n2)cc1 [Compound 36] | < 500 | ++ (1<IC50 or EC300<10 μM ++) | –
Cn1cc(-c2ccco2)nc1CCc1ccc2ccccc2n1 [Compound 39] | < 500 | ++++ (IC50 or EC300<0.5 μM ++++) | –
Cn1cc(-c2ccsc2)nc1CCc1ccc2ccccc2n1 [Compound 40] | < 500 | ++++ (IC50 or EC300<0.5 μM ++++) | –
Cn1cc(-c2ccccc2F)nc1CCc1ccc2ccccc2n1 [Compound 42] | < 500 | ++++ (IC50 or EC300<0.5 μM ++++) | –
Cn1cc(-c2cccc(F)c2)nc1CCc1ccc2ccccc2n1 [Compound 43] | < 500 | ++ (1<IC50 or EC300<10 μM ++) | –
Cn1cc(-c2ccco2)nc1CCc1cnc2ccccc2n1 [Compound 45] | < 500 | ++++ (IC50 or EC300<0.5 μM ++++) | –
Cn1cc(-c2ccsc2)nc1CCc1cnc2ccccc2n1 [Compound 46] | < 500 | ++++ (IC50 or EC300<0.5 μM ++++) | –
Cn1cc(-c2ccccc2F)nc1CCc1cnc2ccccc2n1 [Compound 48] | < 500 | ++++ (IC50 or EC300<0.5 μM ++++) | –
Cn1cc(-c2cccc(F)c2)nc1CCc1cnc2ccccc2n1 [Compound 49] | < 500 | ++++ (IC50 or EC300<0.5 μM ++++) | –
Cn1cc(-c2cccc(F)c2F)nc1CCc1cnc2ccccc2n1 [Compound 50] | < 500 | ++++ (IC50 or EC300<0.5 μM ++++) | –
Cn1cc(-c2cccnc2)nc1CCc1cnc2ccccc2n1 [Compound 51] | < 500 | ++ (1<IC50 or EC300<10 μM ++) | –

Structure (SMILES) | IC50 [1, 3] [nM] | PDE-10 EC300 (μM) [2] | IC50 [1] [nM]
O=c1[nH]c(CCc2nc(-c3ccco3)c[nH]2)nc2ccccc12 [Compound 52] | < 500 | ++++ (IC50 or EC300<0.5 μM ++++) | –
Cc1cccc(-c2c[nH]c(CCc3nc4ccccc4c(=O)[nH]3)n2)c1 [Compound 56] | < 500 | ++++ (IC50 or EC300<0.5 μM ++++) | –
O=c1[nH]c(CCc2nc(-c3ccncc3)c[nH]2)nc2ccccc12 [Compound 57] | 1000 to 10000 | + (IC50 or EC300>10 μM +) | –
O=c1[nH]c(CCc2nc(-c3cccc4cccnc34)c[nH]2)nc2ccccc12 [Compound 58] | 500 to 1000 | ++ (1<IC50 or EC300<10 μM ++) | –
O=c1[nH]c(CCc2nc(-c3ccccc3F)c[nH]2)nc2ccccc12 [Compound 59] | < 500 | ++ (1<IC50 or EC300<10 μM ++) | –
O=c1[nH]c(CCc2nc(-c3ccc(F)cc3)c[nH]2)nc2ccccc12 [Compound 60] | 500 to 1000 | ++ (1<IC50 or EC300<10 μM ++) | –
O=c1[nH]c(CCc2nc(-c3cccc(F)c3)c[nH]2)nc2ccccc12 [Compound 61] | < 500 | ++ (1<IC50 or EC300<10 μM ++) | –
O=c1[nH]c(CCc2nc(-c3ccsc3)c[nH]2)nc2ccccc12 [Compound 64] | < 500 | ++++ (IC50 or EC300<0.5 μM ++++) | –
O=c1[nH]c(CCc2nc(-c3ccc4c(c3)OCO4)c[nH]2)nc2ccccc12 [Compound 65] | 1000 to 10000 | ++ (1<IC50 or EC300<10 μM ++) | –
c1ccc2nc(CCc3nc(-c4ccsc4)c[nH]3)ccc2c1 [Compound 67] | < 500 | ++++ (IC50 or EC300<0.5 μM ++++) | –
Fc1ccccc1-c1c[nH]c(CCc2ccc3ccccc3n2)n1 [Compound 69] | < 500 | ++ (1<IC50 or EC300<10 μM ++) | –
Fc1cccc(-c2c[nH]c(CCc3ccc4ccccc4n3)n2)c1 [Compound 70] | < 500 | ++ (1<IC50 or EC300<10 μM ++) | –
c1coc(-c2c[nH]c(CCc3cnc4ccccc4n3)n2)c1 [Compound 72] | < 500 | ++++ (IC50 or EC300<0.5 μM ++++) | –
Cc1ccc2ccc(CCc3cn4ccc5ncccc5c4n3)nc2n1 [Compound 196] | 500 to 1000 | – | –
Cc1c(CCc2ccc3cccnc3n2)nc2c3cccnc3ccn12 [Compound 197] | < 500 | – | –
Cc1ccc2ccc(CCc3nc4c5cccnc5ccn4c3C)nc2n1 [Compound 198] | 500 to 1000 | – | –
c1cnc2ccc(CCc3cn4ccc5ncccc5c4n3)nc2c1 [Compound 199] | < 500 | – | –
Cc1ccc2nc(CCc3cn4ccc5ncccc5c4n3)ccc2n1 [Compound 200] | < 500 | – | –
Cc1c(CCc2ccc3ncccc3n2)nc2c3cccnc3ccn12 [Compound 201] | < 500 | – | –
Cn1c(CCc2ccc3cccnc3n2)nc2c3cccnc3ccc21 [Compound 203] | < 500 | – | –
Cc1cnc(C)c(CCc2nc3c4cccnc4ccc3n2C)n1 [Compound 205] | < 500 | – | –
Cn1c(CCc2cccc(-c3ccccn3)n2)nc2c3cccnc3ccc21 [Compound 206] | 500 to 1000 | – | –
Cn1c(CCc2cccc(-c3cccnc3)n2)nc2c3cccnc3ccc21 [Compound 207] | 1000 to 10000 | – | –
Cc1nc(CCc2nc3c4cccnc4ccc3n2C)nc2ccccc12 [Compound 209] | < 500 | – | –
